Assay results from patent US9932311B2, “Antidiabetic tricyclic compounds” (Merck Sharp & Dohme Corp., priority 2013, dated 2018).

Experiments:
Type in all cases: cell-based
Human GPR40 [1] = target: T1, Human GPR40 (Homo sapiens, UniProt O14842); test: Inositol Phosphate Turnover (IP1) Assay 1; design: expressed in transfected cells; host or cells: HEK cells stably expressing the aequorin reporter; details: HEK cells stably expressing human GPR40, 96-well, 3H-inositol labeling, SPA beads
Procedure: (§1) Human and mouse GPR40 stable cell-lines were generated in CHO cells stably expressing NFAT BLA (Beta-lactamase). A human GPR40 stable cell-line was generated in HEK cells stably expressing the aequorin expressing reporter. The expression plasmids were transfected using lipofectamine (Life Technologies) following manufacturer's instructions. Stable cell-lines were generated following drug selection.
The assay was performed in 96-well format. HEK cells stably expressing human GPR40 were plated to be 60-80% confluent within 72 h. After 72 h, the plates were aspirated and the cells washed with inositol-free DMEM (ICN). The wash media was replaced with 150 μL of 3H-inositol labeling media (inositol-free media containing 0.4% human albumin or 0.4% mouse albumin, 1× pen/strep antibiotics, glutamine, 25 mM HEPES to which was added 3H-myo-inositol NEN #NET114A 1 mCi/mL, 25 Ci/mmol diluted 1:150 in loading media with a final specific radioactivity of 1 μCi/150 μL). Alternatively, the human and mouse albumin can be added after the overnight labeling step before the addition of LiCl.
The assay was typically run the next day after 18 h labeling. On the day of the assay, 5 μL of 300 mM LiCl was added to all wells and incubated at 37 degrees for 20 min 0.75 μL of 200× compounds were added and incubated with the cells for 60 min at 37 degrees. The media was then aspirated off and the assay terminated with the addition of 60 μL 10 mM formic acid. The cells were lysed for 60 min at room temperature. 15-30 μL of lysate was mixed with 70 μL/1 mg YSi SPA beads (Amersham) in clear bottom Isoplates. The plates were shaken for 2 h at room temperature. Beads were allowed to settle and the plates were counted in the Wallac Microbeta.

Human GPR40 [2] = target: T1, Human GPR40; test: Inositol Phosphate Turnover (IP1) Assay 2; design: expressed in transfected cells; host or cells: HEK cells stably expressing the aequorin reporter; details: HEK cells stably expressing human GPR40, 384-well, CisBio IP-One kit
Procedure: The assay was performed in 384-well format. HEK cells stably expressing human GPR40 were plated at 15,000 cells per well in growth medium (DMEM/10% fetal calf serum). Cell plates were then incubated 16 hours at 37 degrees in a 5% CO2 incubator.
Measurement of Inositol Phosphate Turnover (IP1) was performed using the CisBio IP-One kit (Part number 62IPAPEB). After the 16 hour incubation, the cells were washed with HEPES buffer and 10 ul of stimulation buffer (prepared as described in the kit) was added to each well. In a separate plate, compounds were diluted in DMSO (400-fold over the final concentration in the assay well) and 25 nl was acoustically transferred to the appropriate well in the assay cell plate. The plates were then incubated for 60 minutes at 37 degrees. 10 ul of detection buffer (also prepared as described in the IP-One kit) was added to each well and the plates were incubated for 60 minutes in the dark. The plates were then read in a Perkin Elmer EnVision or equivalent reader able to measure FRET. Fluorescent ratio of emission at 665 and 620 nm was then converted to IP1 concentration by back calculating from an IP1 standard curve prepared at the time of the assay.

Human GPR40 [3] = target: T1, Human GPR40; test: FLIPR assay (agonist-induced calcium mobilization); design: expressed in transfected cells; details: GPR40/CHO NFAT BLA cells
Procedure: as §1
FLIPR (Fluorimetric Imaging Plate Reader, Molecular Devices) assays were performed to measure agonist-induced calcium mobilization of the stable clones. For the FLIPR assay, one day before assay, GPR40/CHO NFAT BLA cells were seeded into black-wall-clear-bottom 384-well plates (Costar) at 1.4×10e4 cells/20 μL medium/well. The cells were incubated with 20 μl/well of the assay buffer (HBSS, 0.1% BSA, 20 mM HEPES, 2.5 mM probenecid, pH 7.4) containing 8 μM fluo-4, AM, 0.08% pluronic acid at room temperature for 100 minutes. Fluorescence output was measured using FLIPR. Compounds were dissolved in DMSO and diluted to desired concentrations with assay buffer. 13.3 μL/well of compound solution was added.

T1 sequence (O14842 whole entry): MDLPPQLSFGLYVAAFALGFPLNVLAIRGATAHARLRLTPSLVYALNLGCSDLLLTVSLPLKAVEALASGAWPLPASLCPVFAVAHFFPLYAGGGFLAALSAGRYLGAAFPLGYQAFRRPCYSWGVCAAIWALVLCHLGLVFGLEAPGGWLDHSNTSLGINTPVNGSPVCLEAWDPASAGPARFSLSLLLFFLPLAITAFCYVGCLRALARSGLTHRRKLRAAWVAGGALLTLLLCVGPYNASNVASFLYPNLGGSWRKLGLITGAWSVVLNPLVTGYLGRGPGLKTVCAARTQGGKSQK

EC50 (Human GPR40 [3]) [nM]	SMILES	EC50 (Human GPR40 [1]) [nM]	EC50 (Human GPR40 [2]) [nM]
	Cc1cc(OCC[C@@H](O)CO)cc(C)c1-c1cc(COc2cc3c(cn2)[C@H]2[C@@H](C3)[C@@H]2C(=O)O)c(F)cc1F [Example 25, (5aR,6S,6aS)-3-((4′-((R)-3,4-dihydroxy-butoxy)-4,6-difluoro-2′,6′-dimethyl-[1,1′-biphenyl]-3-yl)methoxy)-5,5a,6,6a-tetrahydrocyclo-propa[4,5]cyclopenta [1,2-c]pyridine-6-carboxylic acid]	4.7	3.8
	C[C@@](O)(CO)CCOc1ccc(-c2cc(COc3cc4c(cn3)[C@H]3[C@@H](C4)[C@@H]3C(=O)O)c(F)cc2F)c(Cl)c1 [Example 21, (5aR,6S,6aS)-3-((2′-chloro-4′-((S)-3,4-dihydroxy-3-methyl-butoxy)-4,6-di-fluoro-[1,1′-biphenyl]-3-yl)methoxy)-5,5a,6,6a-tetrahydrocyclopropa [4,5]cyclopenta[1,2-c] pyridine-6-carboxylic acid]		2.2
	Cc1cc(OCC[C@@H](O)CO)c(F)cc1-c1cc(COc2cc3c(cn2)[C@H]2[C@@H](C3)[C@@H]2C(=O)O)c(F)cc1Cl [Example 26, (5aR,6S,6aS)-3-((6-chloro-4′-((R)-3,4-dihydroxybutoxy)-4,5,-difluoro-2′-methyl-[1,1′-biphenyl]-3-yl)methoxy)-5,5a,6,6a-tetrahydrocyclo-propa[4,5]cyclopenta [1,2-c]pyridine-6-carboxylic acid]		0.7
	Cc1cc(OCCC(C)(O)CO)cc(C)c1-c1cc(COc2cc3c(cn2)[C@H]2[C@@H](C3)[C@@H]2C(=O)O)c(F)cc1F (stereo partly drawn) [Example 19, (5aR,6S,6aS)-3-((4′-(3,4-dihydroxy-3-methyl-butoxy)-4,6-difluoro-2′,6′-dimethyl-[1,1′-biphenyl]-3-yl)methoxy)-5,5a,6,6a-tetrahydro-cyclopropa[4,5]-cyclopenta[1,2-c] pyridine-6-carboxylic acid]		1.6
	Cc1cc(OCC(C(C)(C)O)C(C)(C)O)cc(C)c1-c1cc(COc2cc3c(cn2)[C@H]2[C@@H](C3)[C@@H]2C(=O)O)c(F)cc1F [Example 22, (5aR,6S,6aS)-3-((4,6-difluoro-4′-(3-hydroxy-2-(2-hydroxypropan-2-yl)-3-methylbutoxy)-2′,6′-dimethyl-[1,1′-biphenyl]-3-yl)methoxy)-5,5a,6,6a-tetrahydrocyclopropa[4,5]cyclopenta[1,2-c]pyridine-6-carboxylic acid]		3.1
	Cc1cc(OCCC(C)(O)C(F)F)nc(C)c1-c1cc(COc2cc3c(cn2)C2[C@@H](C3)[C@@H]2C(=O)O)c(F)cc1F (stereo in doubt) [Example 17, (5aR,6S,6aR)-3-((5-(6-(4,4-difluoro-3-hydroxy-3-methyl-butoxy)-2,4-di-methylpyridin-3-yl)-2,4-difluorobenzyl)oxy)-5,5a,6,6a-tetra-hydrocyclopropa[4,5] cyclopenta[1,2-c] pyridine-6-carboxylic acid]		2.1
	Cc1cc(OCC[C@H](O)CO)cc(C)c1-c1cc(COc2cc3c(cn2)[C@H]2[C@@H](C3)[C@@H]2C(=O)O)c(F)cc1F [Example 24, Sodium (5aR,6S,6aS)-3-((4′-((S)-3,4-dihydroxybutoxy)-4,6-difluoro-2′,6′-dimethyl-[1,1′-biphenyl]-3-yl)methoxy)-5,5a,6,6a-tetrahydrocyclopropa[4,5]cyclopenta[1,2-c]pyridine-6-carboxylate]	4.6	1.3
	Cc1nc(OCCC(C)(O)CO)ccc1-c1cc(COc2cc3c(cn2)[C@H]2[C@@H](C3)[C@@H]2C(=O)O)c(F)cc1C(F)(F)F (stereo partly drawn) [Example 20, (5aR,6S,6aS)-3-((5-(6-(3,4-dihydroxy-3-methyl-butoxy)-2-methylpyridin-3-yl)-2-fluoro-4-(tri-fluoro-methyl)benzyl)-oxy)-5,5a,6,6a-tetra-hydro-cyclopropa[4,5]-cyclopenta[1,2-c]-pyridine-6-carboxylic acid]		3.1
6.89	O=C(O)[C@H]1[C@@H]2Cc3cc(OCc4cc(-c5c(F)cc(OCCC6(O)COC6)cc5F)c(C(F)(F)F)cc4F)ncc3[C@@H]21 [Example 9, (5aR,6S,6aS)-3-((2′,4,6′-trifluoro-4′-(2-(3-hydroxy-oxetan-3-yl)ethoxy)-6-(trifluoromethyl)-[1,1′-biphenyl]-3-yl)methoxy)-5,5a,6,6a-tetrahydrocyclopropa [4,5]cyclopenta[1,2-c]pyridine-6-carboxylic acid]	11.1	
	Cc1cc(CCC(C)(O)CO)cc(C)c1-c1cc(COc2cc3c(cn2)[C@H]2[C@@H](C3)[C@@H]2C(=O)O)c(F)cc1F (stereo partly drawn) [Example 23, (5aR,6S,6aS)-3-((4′-(3,4-dihydroxy-3-methylbutyl)-4,6-difluoro-2′,6′-dimethyl-[1,1′-biphenyl]-3-yl)methoxy)-5,5a,6,6a-tetrahydrocyclopropa[4,5]cyclopenta[1,2-c]pyridine-6-carboxylic acid]		5.2
10.4	Cc1cc(OCCC2(O)COC2)ccc1-c1cc(COc2cc3c(cn2)[C@H]2[C@@H](C3)[C@@H]2C(=O)O)c(F)cc1C(F)(F)F [Example 14, (5aR,6S,6aS)-3-((4-fluoro-4′-(2-(3-hydroxyoxetan-3-yl)ethoxy)-2′-methyl-6-(trifluoromethyl)-[1,1′-biphenyl]-3-yl)methoxy)-5,5a,6,6a-tetrahydrocyclopropa[4,5]cyclopenta[1,2-c]pyridine-6-carboxylic acid]	5.54	
